Experimental findings from ChEMBL document CHEMBL1141451, “Crotonkinins A and B and related diterpenoids from Croton tonkinensis as anti-inflammatory and antitumor agents” (J Nat Prod, 2007) are described below.

Molecules are shown by their SMILES. In brackets after ≈: the same amount, converted by molar mass. A value given as a limit tells only on which side of the number the result lay.

Experiment [1] concerns KB. As to the kind of experiment: Cytotoxicity against human KB cells. Format: functional, cell-based.
For experiment [2], the system named is A549. As to the kind of experiment: Cytotoxicity against human A549 cells. Format: functional, cell-based.
A short description of experiment [3]: Inhibition of nitric oxide synthase in mouse BV2 cells assessed as inhibition of LPS-induced NO production. Format: cell-based. Particulars: BV-2.
Experiment [4] can be described thus: Cytotoxicity against human KB-VIN cells. Format: functional, cell-based. Particulars: KBVIN.
In experiment [5] the test system is MCF7. As to the kind of experiment: Cytotoxicity against human MCF7 cells. Format: functional, cell-based.
A further experiment deals with BV-2. The experiment in a line: Inhibition of NADPH oxidase in mouse BV2 cells assessed as NOX-dependent ROS production at 50 uM. Format: cell-based.
A short description of experiment [6]: Cytotoxicity against human KB-VIN cells at 20 ug/ml. Format: functional. The note with it: KBVIN.
The test system of experiment [7] is A549. The experiment in a line: Cytotoxicity against human A549 cells at 20 ug/ml. Format: functional.
The subject of experiment [8] is KB. As to the kind of experiment: Cytotoxicity against human KB cells at 20 ug/ml. Format: functional.
Experiment [9] has as its system MCF7. As to the kind of experiment: Cytotoxicity against human MCF7 cells at 20 ug/ml. Format: functional.
The nature of experiment [10]: Inhibition of NADPH oxidase in mouse BV2 cells assessed as NOX-dependent ROS production. Particulars: BV-2.

Regarding `C=C1C(=O)[C@@]23[C@H](O)C[C@@H]4C(C)(C)CC[C@@H](OC(C)=O)[C@@]4(C)[C@@H]2CC[C@@H]1[C@H]3O`, the concentration for a half-maximal effect (EC50) in the experiment with KB [1] stood at 0.91 µg/mL (≈ 2.42 µM); in the experiment on A549 [2] it was 3.03 µg/mL (≈ 8.05 µM); in experiment [4], 0.78 µg/mL (≈ 2.07 µM); with MCF7 [5], 0.94 µg/mL (≈ 2.5 µM). Also, the IC50 in experiment [3] was determined as 1.3 µM. The inhibition in the experiment on BV-2 stood at 29.4%.

`C=C1C(=O)[C@@]23CC[C@@H]4[C@@](C)(CO)CCC[C@@]4(C)[C@@H]2CC[C@@H]1C3`: the EC50 in the experiment with KB [1] came out at 1.47 µg/mL (≈ 4.86 µM); with A549 [2], 6.52 µg/mL (≈ 21.6 µM); in experiment [4], 1.31 µg/mL (≈ 4.33 µM); with MCF7 [5] it was 4.31 µg/mL (≈ 14.2 µM).

With `C=C1C(=O)[C@@]23CC[C@@H]4[C@@](C)(COC(C)=O)CCC[C@@]4(C)[C@@H]2CC[C@@H]1C3`, the EC50 is 3.75 µg/mL (≈ 10.9 µM) in the experiment on KB [1], 6.56 µg/mL (≈ 19 µM) with A549 [2], 2.84 µg/mL (≈ 8.24 µM) in experiment [4] and 6.11 µg/mL (≈ 17.7 µM) in the experiment on MCF7 [5].

For the molecule `C=C1C(=O)[C@]23C[C@H]1CC[C@H]2[C@]1(C)CCC[C@](C)(CO)[C@H]1C[C@H]3O`, the 50% effective concentration (EC50) with KB [1] came out at 0.87 µg/mL (≈ 2.73 µM); in the experiment with A549 [2], 3.96 µg/mL (≈ 12.4 µM); in experiment [4], 0.82 µg/mL (≈ 2.57 µM); in the experiment on MCF7 [5], 0.98 µg/mL (≈ 3.08 µM). The half-maximal inhibitory concentration (IC50) in experiment [3] came to 1.4 µM. The inhibition with BV-2 is 20.6%.

Regarding `C=C1C[C@]23C(=O)C[C@H]4C(C)(C)CCC[C@]4(C)[C@H]2CC[C@H]1[C@@H]3O` [CROTONKININ A], the inhibition at 20 µg/mL (in experiment [6]; with A549 [7]; with KB [8]; with MCF7 [9]) was < 50% each time. In addition, the IC50 in experiment [3] is 46.2 µM. Besides, the inhibition with BV-2 was found to be 11.2%.

In the case of `COC(=O)[C@@H](N)CCCNC(=N)N[N+](=O)[O-]` [L-NAME], the 50% inhibitory concentration (IC50) in [3] amounted to 20.1 µM.

Turning to `C=C1C(=O)[C@@]23[C@H](O)C[C@@H]4C(C)(C)CCC[C@@]4(C)[C@@H]2CC[C@@H]1[C@H]3O`, the EC50 in the experiment with KB [1] amounted to 0.64 µg/mL (≈ 2.01 µM); with A549 [2] it was 1.45 µg/mL (≈ 4.55 µM); in experiment [4], 0.63 µg/mL (≈ 1.98 µM); in the experiment on MCF7 [5], 0.75 µg/mL (≈ 2.36 µM). For the same molecule, in experiment [3], the half-inhibitory concentration (IC50) came out at 1.2 µM. Further, the inhibition in the experiment with BV-2 came out at 29.4%.

For `CC(=O)OC[C@@]1(C)CCC[C@]2(C)[C@@H]1C[C@H](O)[C@@]13C[C@@H](CC[C@@H]21)[C@H](C)C3=O`, the inhibition at 20 µg/mL (in experiment [6]; in the experiment on A549 [7]; with KB [8]; with MCF7 [9]) was < 50% throughout. Also, in experiment [3], the IC50 turned out to be 42.5 µM. Besides, in the experiment on BV-2, the inhibition worked out at 9.5%.

For the molecule `C=C1C(=O)[C@]23C[C@H]1CC[C@H]2[C@]1(C)CCCC(C)(C)[C@H]1C[C@H]3O`, the EC50 in the experiment with KB [1] worked out at 0.79 µg/mL (≈ 2.61 µM); in the experiment with A549 [2], 4.77 µg/mL (≈ 15.8 µM); in experiment [4], 0.74 µg/mL (≈ 2.45 µM); in the experiment on MCF7 [5] it was 1.47 µg/mL (≈ 4.86 µM). Besides, in experiment [3], the IC50 turned out to be 4 µM. The inhibition in the experiment on BV-2 was found to be 23.1%.

In the case of `C=C1C(=O)[C@]23C[C@H]1CC[C@H]2[C@]1(C)CCC[C@](C)(COC(C)=O)[C@H]1C[C@H]3O`, the EC50 in the experiment with KB [1] is 0.71 µg/mL (≈ 1.97 µM); with A549 [2], 1.26 µg/mL (≈ 3.5 µM); in experiment [4], 0.61 µg/mL (≈ 1.69 µM); in the experiment with MCF7 [5], 0.65 µg/mL (≈ 1.8 µM). Moreover, in experiment [3], the 50% inhibitory concentration (IC50) was 1.3 µM. Further, in the experiment on BV-2, the inhibition was determined as 24.8%.

Consider `C=C1C(=O)[C@@]23[C@H](O)C[C@@H]4[C@@](C)(COC(C)=O)CCC[C@@]4(C)[C@@H]2CC[C@@H]1[C@H]3O`, for which the EC50 was found to be 0.93 µg/mL (≈ 2.47 µM) with KB [1], 2.78 µg/mL (≈ 7.38 µM) in the experiment on A549 [2], 0.88 µg/mL (≈ 2.34 µM) in experiment [4] and 1.98 µg/mL (≈ 5.26 µM) in the experiment on MCF7 [5].

Consider `C=C1C(=O)[C@@]23CC[C@H]4[C@@](C)(CCC[C@]4(C)C(=O)O)[C@@H]2CC[C@@H]1C3`, for which the EC50 in the experiment on KB [1] was determined as 1.04 µg/mL (≈ 3.29 µM); with A549 [2], 3.91 µg/mL (≈ 12.4 µM); in experiment [4], 1.08 µg/mL (≈ 3.41 µM); with MCF7 [5], 2.69 µg/mL (≈ 8.5 µM). Moreover, in experiment [3], the IC50 came to 2.6 µM. In addition, in the experiment on BV-2, the inhibition turned out to be 14.2%.

`c1ccc2c(c1)[I+]c1ccccc1-2` [DIPHENYLENEIODONIUM]: in experiment [10], the IC50 was determined as 16 µM. In addition, in the experiment with BV-2, the inhibition was 94.3%.
